The subject of the assay is recombinant NL4-3 virus (Renilla luciferase) in MT-2 cells. Put plainly: HIV cell culture assay (antiviral activity, luciferase readout in infected MT-2 cells). The assay is classed as cell-based. An outline of the steps: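 Nef-deleted NL4-3 carrying Renilla luciferase, produced by 293T transfection, used to infect MT-2 cells for 4–5 days with serial compound dilutions. Live-cell luciferase signal read as infection marker; EC50 from exponential median-effect equation.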

Where [1] appears, read: Renilla, NL43, read-out: Activity, antiviral activity class, recombinant NL4-3 Renilla luciferase virus in MT-2 cells.
[2] abbreviates: Renilla, NL43, recombinant NL4-3 Renilla luciferase virus in MT-2 cells.

Like-named read-outs stand apart in the source and are kept apart here. Bounds are passed on as bounds.

On to `Cc1nc2ccc(N(C)C(=O)[C@H](Cc3ccccc3)NC(=O)NS(=O)(=O)c3ccccc3C)cc2o1` [Example CA-86, (S)—N-methyl-N-(2-methylbenzo[d]oxazol-6-yl)-3-phenyl-2-(3-(o-tolylsulfonyl)ureido)propanamide], for which, under setting [1], the EC50 is below 0.1 µM.

As for `CN(C(=O)[C@H](Cc1cc(F)cc(F)c1)NC(=O)NS(=O)(=O)c1ccccc1F)c1ccc2scnc2c1` [Example ZY-16, (S)—N-(benzo[d]thiazol-5-yl)-3-(3,5-difluorophenyl)-2-(3-((2-fluorophenyl)sulfonyl)ureido)-N-methylpropanamide], the EC50 under setting [1] is below 0.1 µM.

On to `CN(C(=O)[C@H](Cc1ccccc1)NC(=O)NS(=O)(=O)c1ccccc1-c1ccc(CO)cc1)c1ccc2c(c1)OCO2` [Example 124, (S)—N-(benzo[d][1,3]dioxol-5-yl)-2-(3-((4′-(hydroxymethyl)-[1,1′-biphenyl]-2-yl)sulfonyl)ureido)-N-methyl-3-phenylpropanamide], for which the EC50 under setting [1] is 1 to 10 µM.

Regarding `CCN(C(=O)[C@H](Cc1ccccc1)NC(=O)NS(=O)(=O)c1cccc2ccccc12)c1ccc(OC)cc1` [Example 116, (S)—N-ethyl-N-(4-methoxyphenyl)-2-(3-(naphthalen-1-ylsulfonyl)ureido)-3-phenylpropanamide], the EC50 under setting [1] was below 0.1 µM.

`Cc1ccccc1S(=O)(=O)NC(=O)N[C@@H](Cc1cc(F)c(F)cc1F)C(=O)N(C)c1ccc2c(c1)OCO2` [Example 75, (S)—N-(benzo[d][1,3]dioxol-5-yl)-N-methyl-2-(3-(o-tolylsulfonyl)ureido)-3-(2,4,5-trifluorophenyl)propanamide]: the EC50 is, setting by setting: under setting [1], 0.1 to 1 µM; under setting [2], 0.29 µM.

Turning to `CCN(C(=O)[C@H](Cc1ccccc1)NC(=O)NS(=O)(=O)c1ccccc1C)c1ccc(OC)cc1` [Example 184, (S)—N-ethyl-N-(4-methoxyphenyl)-3-phenyl-2-(3-(o-tolylsulfonyl)ureido)propanamide], the EC50 under setting [1] was below 0.1 µM.

As for `Cc1ccccc1S(=O)(=O)NC(=O)N[C@@]1(C(=O)N(C)c2ccc3c(c2)OCO3)C[C@H]1c1ccccc1` [Example 79, (1S,2S)—N-(benzo[d][1,3]dioxol-5-yl)-N-methyl-2-phenyl-1-(3-(o-tolylsulfonyl)ureido)cyclopropanecarboxamide], under setting [1], the EC50 lay in the range of 10 to 100 µM.

As to `COc1cc(N(C)C(=O)[C@H](Cc2ccccc2)NC(=O)NS(=O)(=O)c2ccccc2C)cc(OC)c1OC` [Example JB-82, (S)—N-methyl-3-phenyl-2-(3-(o-tolylsulfonyl)ureido)-N-(3,4,5-trimethoxyphenyl)propanamide], under setting [1], the EC50 was in the range of 1 to 10 µM.

With `CCOc1ccc(C[C@H](NC(=O)NS(=O)(=O)c2ccccc2C)C(=O)N(C)c2ccc3c(c2)OCO3)cc1` [Example 52, (S)—N-(benzo[d][1,3]dioxol-5-yl)-3-(4-ethoxyphenyl)-N-methyl-2-(3-(o-tolylsulfonyl)ureido)propanamide], the EC50 under setting [1] fell in the range of 1 to 10 µM and the EC50 under setting [2] turned out to be 6.23 µM.

Regarding `Cc1ccccc1S(=O)(=O)NC(=O)N[C@@H](Cc1ccccc1)C(=O)N(C)c1ccc2scnc2c1` [Example CA-88, (S)—N-(benzo[d]thiazol-5-yl)-N-methyl-3-phenyl-2-(3-(o-tolylsulfonyl)ureido)propanamide], the EC50 under setting [1] was below 0.1 µM and the EC50 under setting [2] stood at 0.06 µM.

`COc1ncccc1-c1ccccc1S(=O)(=O)NC(=O)N[C@@H](Cc1ccccc1)C(=O)N(C)c1ccc2c(c1)OCO2` [Example 129, (S)—N-(benzo[d][1,3]dioxol-5-yl)-2-(3-((2-(2-methoxypyridin-3-yl)phenyl)sulfonyl)ureido)-N-methyl-3-phenylpropanamide]: the EC50 by setting is: under setting [1], 1 to 10 µM; under setting [2], 5.52 µM.

With `CN(C(=O)[C@H](Cc1ccccc1)NC(=O)NS(=O)(=O)c1ccccc1-c1cccnc1)c1ccc2c(c1)OCO2` [Example 128, (S)—N-(benzo[d][1,3]dioxol-5-yl)-N-methyl-3-phenyl-2-(3-((2-(pyridin-3-yl)phenyl)sulfonyl)ureido)propanamide], under setting [1], the EC50 is 1 to 10 µM.

Consider `Cc1ccccc1S(=O)(=O)NC(=O)N[C@@H](Cc1ccccc1)C(=O)N(C)c1ccc2ncn(C)c2c1` [Example CA-73, (S)—N-methyl-N-(1-methyl-H-benzo[d]imidazol-6-yl)-3-phenyl-2-(3-(o-tolylsulfonyl)ureido)propanamide], for which the EC50 under setting [1] lay within 0.1 to 1 µM.

As for `CN(C(=O)[C@H](Cc1ccccc1)NC(=O)NS(=O)(=O)c1ccccc1-c1ccc(C(N)=O)cc1)c1ccc2c(c1)OCO2` [Example 131, (S)-2′-(N-((1-(benzo[d][1,3]dioxol-5-yl(methyl)amino)-1-oxo-3-phenylpropan-2-yl)carbamoyl)sulfamoyl)-[1,1′-biphenyl]-4-carboxamide], the EC50 under setting [1] lay within 10 to 100 µM.

As to `CCN(C(=O)[C@H](Cc1ccccc1)NC(=O)NS(=O)(=O)c1ccccc1C(=O)OC)c1ccc(OC)cc1` [Example 114, (S)-methyl 2-(N-((1-(ethyl(4-methoxyphenyl)amino)-1-oxo-3-phenylpropan-2-yl)carbamoyl)sulfamoyl)benzoate], the EC50 is, setting by setting: under setting [1], 1 to 10 µM; under setting [2], 1.06 µM.

As for `COc1ccc(N(CC(F)(F)F)C(=O)[C@H](Cc2ccccc2)NC(=O)NS(=O)(=O)c2ccccc2C)cc1` [Example 200, (S)—N-(4-methoxyphenyl)-3-phenyl-2-(3-(o-tolylsulfonyl)ureido)-N-(2,2,2-trifluoroethyl)propanamide], the EC50 under setting [1] was in the range of 0.1 to 1 µM.

Regarding `Cc1ccccc1S(=O)(=O)NC(=O)N[C@@H](Cc1ccccc1)C(=O)N(C)c1cccc(C(N)=O)c1` [Example CA-94, (S)-3-(N-methyl-3-phenyl-2-(3-(o-tolylsulfonyl)ureido)propanamido)benzamide], the EC50 reads like this: under setting [1], 1 to 10 µM; under setting [2], 3.26 µM.

As for `Cc1ccccc1S(=O)(=O)NC(=O)N[C@@H](Cc1cc(F)cc(F)c1)C(=O)N(C)c1ccc2scnc2c1` [Example ZY-7, (S)—N-(benzo[d]thiazol-5-yl)-3-(3,5-difluorophenyl)-N-methyl-2-(3-(o-tolylsulfonyl)ureido)propanamide], under setting [1], the EC50 was below 0.1 µM.

Take `CN(C(=O)[C@H](Cc1ccccc1)NC(=O)NS(=O)(=O)c1c(Cl)cccc1Cl)c1ccc2c(c1)OCO2` [Example 100, (S)—N-(benzo[d][1,3]dioxol-5-yl)-2-(3-((2,6-dichlorophenyl)sulfonyl)ureido)-N-methyl-3-phenylpropanamide]: the EC50 under setting [1] was below 0.1 µM.

On to `CCn1c(C)nc2cc(N(C)C(=O)[C@H](Cc3ccccc3)NC(=O)NS(=O)(=O)c3ccccc3C)ccc21` [Example CA-74, (S)—N-(1-ethyl-2-methyl-1H-benzo[d]imidazol-5-yl)-N-methyl-3-phenyl-2-(3-(o-tolylsulfonyl)ureido)propanamide], for which the EC50 is 1 to 10 µM under setting [1] and 2.03 µM under setting [2].

Consider `COC(=O)c1cccc(C[C@H](NC(=O)NS(=O)(=O)c2ccccc2C)C(=O)N(C)c2ccc3c(c2)OCO3)c1` [Example 64, (S)-methyl 3-(3-(benzo[d][1,3]dioxol-5-yl(methyl)amino)-3-oxo-2-(3-(o-tolylsulfonyl)ureido)propyl)benzoate], for which, under setting [1], the EC50 lay within 1 to 10 µM.

Regarding `CCN(C(=O)[C@H](Cc1ccccc1)NC(=O)NS(=O)(=O)c1cccc(-c2ccnn2CC(C)C)c1C)c1ccc(OC)cc1` [Example 214, (S)—N-ethyl-2-(3-((3-(1-isobutyl-1H-pyrazol-5-yl)-2-methylphenyl)sulfonyl)ureido)-N-(4-methoxyphenyl)-3-phenylpropanamide], the EC50 is, setting by setting: under setting [1], 0.1 to 1 µM; under setting [2], 0.87 µM.

Turning to `CN(C(=O)[C@H](Cc1ccccc1)NC(=O)NS(=O)(=O)c1cccc(Cl)c1Cl)c1ccc2c(c1)OCO2` [Example 15, (S)—N-(benzo[d][1,3]dioxol-5-yl)-2-(3-((2,3-dichlorophenyl)sulfonyl)ureido)-N-methyl-3-phenylpropanamide], under setting [1], the EC50 was below 0.1 µM.

Consider `Cc1ccccc1S(=O)(=O)NC(=O)N[C@@H](Cc1ccc(Cl)cc1Cl)C(=O)N(C)c1ccc2c(c1)OCO2` [Example 74, (S)—N-(benzo[d][1,3]dioxol-5-yl)-3-(2,4-dichlorophenyl)-N-methyl-2-(3-(o-tolylsulfonyl)ureido)propanamide], for which the EC50 was 1 to 10 µM under setting [1] and 3.88 µM under setting [2].

Consider `CN(C(=O)[C@H](Cc1ccccc1)NC(=O)NS(=O)(=O)Cc1cccc(Cl)c1)c1ccc2c(c1)OCO2` [Example 103, (S)—N-(benzo[d][1,3]dioxol-5-yl)-2-(3-((3-chlorobenzyl)sulfonyl)ureido)-N-methyl-3-phenylpropanamide], for which, under setting [1], the EC50 lay within 0.1 to 1 µM.

`CCN(C(=O)[C@H](Cc1ccccc1)NC(=O)NS(=O)(=O)c1cccc(-c2ccco2)c1)c1ccc(OC)cc1` [Example 149]: under setting [1], the EC50 lay within 0.1 to 1 µM.

As for `CCN(C(=O)[C@H](Cc1ccccc1)NC(=O)NS(=O)(=O)c1ccccc1C)c1ccc(O)c(NC=O)c1` [Example CA-89, (S)—N-ethyl-N-(3-formamido-4-hydroxyphenyl)-3-phenyl-2-(3-(o-tolylsulfonyl)ureido)propanamide], the EC50 under setting [1] lay within 0.1 to 1 µM and the EC50 under setting [2] amounted to 0.6 µM.

With `CCN(C(=O)[C@H](Cc1ccccc1)NC(=O)NS(=O)(=O)c1cccc(-c2csc(C(=O)O)c2)c1C)c1ccc(OC)cc1` [Example 160], the EC50 was 1 to 10 µM under setting [1] and 5.64 µM under setting [2].

With `CN(C(=O)[C@H](Cc1ccccc1)NC(=O)NS(=O)(=O)c1ccccc1-c1cnn(C)c1)c1ccc2c(c1)OCO2` [Example 133, (S)—N-(benzo[d][1,3]dioxol-5-yl)-N-methyl-2-(3-((2-(1-methyl-1H-pyrazol-4-yl)phenyl)sulfonyl)ureido)-3-phenylpropanamide], under “read-out: Activity, antiviral activity class, recombinant NL4-3 Renilla luciferase virus in MT-2 cells”, the EC50 lay within 0.1 to 1 µM.

As to `COc1ncc(-c2ccccc2S(=O)(=O)NC(=O)N[C@@H](Cc2ccccc2)C(=O)N(C)c2ccc3c(c2)OCO3)cn1` [Example 130, (S)—N-(benzo[d][1,3]dioxol-5-yl)-2-(3-((2-(2-methoxypyrimidin-5-yl)phenyl)sulfonyl)ureido)-N-methyl-3-phenylpropanamide], the EC50 under setting [1] was in the range of 1 to 10 µM.

The values are drawn from patent US10035760B2, “Inhibitors of human immunodeficiency virus replication” (priority 2013, dated 2018).
